Experimental data as given in the supplement of paper PMC10307832.

Legend:
Test in all cases: relative viability (nuclei count vs DMSO), 5 days (fraction); higher = more cells survive
[1] = compound: CC1=CN2C(=O)C=C(N=C2C(=C1)C(C)NC3=CC=CC=C3)N4CCOCC4 [TGX 221] + CC(C)C[C@H](NC(=O)[C@H](Cc1ccccc1)NC(=O)c1cnccn1)B(O)O [Bortezomib] (partner 0.002 µM)
How it was run: (§1)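 Lung cancer cell lines in 1536-well plates were dosed by pin tool the day after seeding, either with one drug alone or with a fixed anchor-drug dose plus five library-drug doses (not always all listed) in √10 steps. After 5 days, cells were fixed and their nuclei stained in one step (final 0.05% Triton X-100, 1% formaldehyde, 1 ug/ml Hoechst), then counted on 4× images. Relative viability is the nuclei count in treated wells divided by that in vehicle wells. Values are medians of duplicate plates.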

[2] = compound: CC1=CN2C(=O)C=C(N=C2C(=C1)C(C)NC3=CC=CC=C3)N4CCOCC4 [TGX 221] + Cc1cc(Nc2cc(N3CCN(C)CC3)nc(Sc3ccc(NC(=O)C4CC4)cc3)n2)n[nH]1 [Tozasertib] (partner 0.1 µM)
How it was run: as §1

[3] = compound: O=C(CCCCCCNC(=O)c1cnc(N(c2ccccc2)c2ccccc2)nc1)NO [Ricolinostat] + CC1(C)CCC(c2ccc(Cl)cc2)=C(CN2CCN(c3ccc(C(=O)NS(=O)(=O)c4ccc(N[C@H](CCN5CCOCC5)CSc5ccccc5)c(S(=O)(=O)C(F)(F)F)c4)cc3)CC2)C1 [Navitoclax] (partner 0.5 µM)
How it was run: as §1

[4] = compound: O=C(CCCCCCNC(=O)c1cnc(N(c2ccccc2)c2ccccc2)nc1)NO [Ricolinostat] + Nc1nc2[nH]cc(CCc3ccc(C(=O)N[C@@H](CCC(=O)O)C(=O)O)cc3)c2c(=O)[nH]1 [Pemetrexed] (partner 0.2 µM)
How it was run: as §1

Cell Line | relative viability ([1]; first compound 0.08 µM) | relative viability ([1]; first compound 0.253 µM) | relative viability ([1]; first compound 0.8 µM) | relative viability ([1]; first compound 2.53 µM) | relative viability ([1]; first compound 8 µM) | relative viability ([2]; first compound 0.08 µM) | relative viability ([2]; first compound 0.253 µM) | relative viability ([2]; first compound 0.8 µM) | relative viability ([2]; first compound 2.53 µM) | relative viability ([2]; first compound 8 µM) | relative viability ([3]; first compound 0.253 µM) | relative viability ([3]; first compound 0.8 µM) | relative viability ([3]; first compound 2.53 µM) | relative viability ([4]; first compound 0.08 µM) | relative viability ([4]; first compound 0.253 µM) | relative viability ([4]; first compound 0.8 µM) | relative viability ([4]; first compound 2.53 µM) | relative viability ([3]; first compound 0.08 µM)
EKVX | 1.02 | 1.11 | 0.939 | 0.985 | 0.986 | 0.381 | 0.343 | 0.329 | 0.317 | 0.272 | 0.805 | 0.842 | 1.02 | 0.34 | 0.394 | 0.335 | 0.406 | –
EMC-BAC-2 | 1.02 | 1.02 | 1.08 | 1.03 | 1.07 | 0.255 | 0.318 | 0.296 | 0.307 | 0.275 | 1.09 | 1.2 | 1.2 | 0.44 | 0.414 | 0.38 | 0.308 | 1.04
EPLC-272H | 0.966 | 0.879 | 0.893 | – | 1 | 0.187 | 0.275 | 0.282 | 0.186 | 0.138 | 0.784 | 0.992 | 0.631 | 0.448 | 0.365 | 0.334 | 0.297 | –
H3255 | 0.685 | 0.732 | 0.792 | 0.776 | 0.708 | 0.449 | 0.529 | 0.692 | 0.563 | 0.613 | 0.495 | 0.483 | 0.483 | 0.494 | 0.544 | 0.553 | 0.557 | 0.537
HARA | 1.13 | 1.07 | 1.05 | 1.09 | 1.2 | 0.147 | 0.105 | 0.123 | 0.1 | 0.0992 | 1.1 | 1.09 | 1.11 | 0.254 | 0.256 | 0.213 | 0.274 | 1.1
HCC-15 | 1.02 | 0.953 | 0.93 | 1.04 | 1.06 | 0.438 | 0.463 | 0.407 | 0.323 | 0.237 | 0.75 | 0.767 | 0.616 | 0.22 | 0.214 | 0.231 | 0.234 | 0.649
HCC-44 | 0.951 | 0.935 | 0.945 | 0.851 | 0.997 | – | 0.947 | 1.03 | 0.92 | 0.695 | 1.04 | 0.985 | 0.93 | 0.661 | 0.548 | 0.682 | 0.601 | 0.861
HCC-78 | 0.435 | 0.38 | 0.429 | 0.24 | 0.335 | 0.344 | 0.432 | 0.371 | 0.268 | 0.347 | 0.771 | 0.561 | 0.435 | – | 0.84 | 0.902 | 0.88 | –
HCC-366 | 0.863 | 1.03 | 1.12 | 0.99 | 1.09 | 0.0834 | 0.113 | 0.283 | 0.0517 | 0.0636 | 0.957 | 1.06 | 0.978 | 0.172 | 0.153 | 0.202 | 0.156 | 0.831
